Measured values reported in patent US6562814B2, “3-thioxo-[1,2,4]-oxadiazinan-5-one derivatives” (Wyeth, priority 2000, dated 2003).

What was measured:
serum HDL cholesterol = test: HDL cholesterol determination in cholesterol/cholic acid-fed rats; format: in vivo, Male Sprague-Dawley rats; conditions: Rattus norvegicus, feed or water, 192 h, 8 days, rats fed chow with 0.25% cholic acid and 1.0% cholesterol, FPLC, read-out: HDL Cholesterol Level Increase (%); for change in vivo at 100 mg/kg/day: dose 100 mg/kg/day in diet
Method: The ability of the compounds of this invention to increase blood serum HDL levels was established by the following standard experimental procedure for determination of HDL cholesterol:
Male Sprague-Dawley rats weighing 200-225 g were housed two per cage and fed Purina Rodent Chow Special Mix 5001-S supplemented with 0.25% cholic acid and 1.0% cholesterol and water ad libitum for 8 days. Each test substance is administered to a group of six rats fed the same diet with the test diet mixed in as 0.005-0.1% of the total diet. Body weight and food consumption were recorded prior to diet administration and at termination. Typical doses of the test substances were 5-100 mg/kg/day.
At termination, blood was collected from anesthetized rats and the serum was separated by centrifugation. Total serum cholesterol was assayed using the Sigma Diagnostics enzymatic kit for the determination of cholesterol, Procedure No. 352, modified for use with ninety-six well microtiter plates. After reconstitution with water the reagent contains 300 U/I cholesterol oxidase, 100 U/I cholesterol esterase, 1000 U/I horse radish peroxidase, 0.3 mmoles/l 4-aminoantipyrine and 30.0 mmoles/l p-hydroxybenzenesulfonate in a pH 6.5 buffer. In the reaction cholesterol was oxidized to produce hydrogen peroxide which was used to form a quinoneimine dye. The concentration of dye formed was measured spectrophotometrically by absorbence at 490 nm after incubation at 25° C. for 30 minutes. The concentration of cholesterol was determined for each serum sample relative to a commercial standard from Sigma.
HDL cholesterol concentrations in serum are determined by separation of lipoprotein classes by fast protein liquid chromatography (FPLC) by a modification of the method of Kieft et al., J. Lipid Res., 32 (1991) 859-866. 25 ul of serum was injected onto Superose 12 and Superose 6 (Pharmacia), in series, with a column buffer of 0.05 M Tris (2-amino-2-hydroxymethyl-1,3-propanediol) and 0.15 M sodium chloride at a flow rate of 0.5 ml/min. The eluted sample was mixed on line with Boehringer-Mannheim cholesterol reagent pumped at 0.2 ml/min. The combined eluents are mixed and incubated on line through a knitted coil (Applied Biosciences) maintained at a temperature of 45C. The eluent was monitored by measuring absorbence at 490 nm and gives a continuous absorbence signal proportional to the cholesterol concentration. The relative concentration of each lipoprotein class was calculated as the percent of total absorbence. HDL cholesterol concentration, in serum, was calculated as the percent of total cholesterol as determined by FPLC multiplied by the total serum cholesterol concentration.
Test compounds were administered at the specified dose. Each test substance was administered to a group of six rats. The duration of treatment was eight days.

| Compound | change in vivo at 100 mg/kg/day (serum HDL cholesterol) | melting point | change in vivo at 85 mg/kg/day (serum HDL cholesterol; dose 85 mg/kg/day in diet) |
| --- | --- | --- | --- |
| Cc1cc(Cl)ccc1N1C(=O)CON(C)C1=S [Example 1, 4-(4-Chloro-2-methylphenyl)-2-methyl-3-thioxo-[1,2,4]oxadiazinan-5-one] | 221% | 141 to 143 °C |  |
| CN1OCC(=O)N(C(c2ccccc2)c2ccccc2)C1=S [Example 2, 4-Benzhydryl-2-methyl-3-thioxo-[1,2,4]oxadiazinan-5-one] | 60% | 152 to 154 °C |  |
| Cc1ccc(Cl)cc1N1C(=O)CON(C)C1=S [Example 3, 4-(5-Chloro-2-methylphenyl)-2-methyl-3-thioxo-[1,2,4]oxadiazinan-5-one] | 236% | 100 to 102 °C |  |
| CCN1OCC(=O)N(c2cc(Cl)ccc2C)C1=S [Example 4, 4-(5-Chloro-2-methylphenyl)-2-ethyl-3-thioxo-[1,2,4]oxadiazinan-5-one] |  | 119 to 121 °C | 136% |
| CN1OCC(=O)N(c2ccc3c(c2)CCC3)C1=S [Example 5, 4-Indan-5-yl-2-methyl-3-thioxo-[1,2,4]oxadiazinan-5-one] | 192% | 135 to 137 °C |  |
| Cc1ccc(C)c(N2C(=O)CON(C)C2=S)c1 [Example 6, 4-(2,5-Dimethylphenyl)-2-methyl-3-thioxo-[1,2,4]oxadiazinan-5-one] | 72% | 104 to 106 °C |  |
| Cc1cccc(Cl)c1N1C(=O)CON(C)C1=S [Example 7, 4-(2-Chloro-6-methylphenyl)-2-methyl-3-thioxo-[1,2,4]oxadiazinan-5-one] | 100% | 176 to 178 °C |  |
| CC(C)c1ccccc1N1C(=O)CON(C)C1=S [Example 8, 4-(2-Isopropylphenyl)-2-methyl-3-thioxo-[1,2,4]oxadiazinan-5-one] | 95% | 98 to 101 °C |  |
| CN1OCC(=O)N(c2ccc(C(C)(C)C)cc2)C1=S [Example 9, 4-(4-tert-Butylphenyl)-2-methyl-3-thioxo-[1,2,4]oxadiazinan-5-one] | 170% | 168 to 170 °C |  |
| CN1OCC(=O)N(c2ccc(Oc3ccccc3)cc2)C1=S [Example 10, 4-(4-Phenoxyphenyl)-2-methyl-3-thioxo-[1,2,4]oxadiazinan-5-one] | 102% | 159 to 160 °C |  |
| COc1ccc(Cl)cc1N1C(=O)CON(C)C1=S [Example 11, 4-(5-Chloro-2-methoxyphenyl)-2-methyl-3-thioxo-[1,2,4]oxadiazinan-5-one] | 78% | 189 to 191 °C |  |
